# Test results taken from patent US20230348358A1, “Serotonin Receptor Modulators” (Northeastern University, priority 2020, published 2023).
# Several values for one entry are separate records, joined by “and”; a condition that tells them apart may be missing. Equal values may be shown once. Read-outs that look alike come from different tables or passages of the source.
# How the values were obtained:
# 5HT1A [1] = biological target: T1, 5HT1A (Homo sapiens, UniProt P08908); assay: Affinity (Ki) at 5HT1A, transfected HEK cells
# T1 sequence (P08908 1-422): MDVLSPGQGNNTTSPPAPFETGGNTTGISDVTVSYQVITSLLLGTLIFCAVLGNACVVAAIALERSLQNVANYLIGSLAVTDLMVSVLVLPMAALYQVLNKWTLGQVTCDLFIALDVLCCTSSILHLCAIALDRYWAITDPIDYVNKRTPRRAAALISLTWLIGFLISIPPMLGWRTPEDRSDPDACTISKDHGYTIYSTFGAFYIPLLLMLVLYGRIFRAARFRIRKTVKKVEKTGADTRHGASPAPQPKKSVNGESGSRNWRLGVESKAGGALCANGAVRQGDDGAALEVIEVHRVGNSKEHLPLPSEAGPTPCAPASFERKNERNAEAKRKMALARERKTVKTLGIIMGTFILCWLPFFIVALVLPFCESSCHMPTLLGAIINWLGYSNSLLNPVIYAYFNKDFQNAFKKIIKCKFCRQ
# 5HT7 [2] = biological target: T2, 5HT7 (Homo sapiens, UniProt P34969); assay: Affinity (Ki) at 5HT7, HEK293 cells stably expressing 5HT7
# T2 sequence (P34969 whole entry): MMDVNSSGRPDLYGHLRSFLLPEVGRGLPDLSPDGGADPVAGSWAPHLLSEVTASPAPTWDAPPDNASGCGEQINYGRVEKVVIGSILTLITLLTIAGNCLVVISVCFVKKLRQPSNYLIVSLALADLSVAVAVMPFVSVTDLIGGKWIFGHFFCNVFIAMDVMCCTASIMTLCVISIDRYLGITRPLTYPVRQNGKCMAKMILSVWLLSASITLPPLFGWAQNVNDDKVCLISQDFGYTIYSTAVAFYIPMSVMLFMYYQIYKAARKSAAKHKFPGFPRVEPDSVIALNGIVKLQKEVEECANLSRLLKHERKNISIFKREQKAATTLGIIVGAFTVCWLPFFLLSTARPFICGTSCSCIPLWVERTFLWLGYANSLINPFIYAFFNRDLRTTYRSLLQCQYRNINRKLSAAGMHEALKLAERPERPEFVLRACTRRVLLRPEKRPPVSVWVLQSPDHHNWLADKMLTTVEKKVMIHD
# 5HT7 [3] = biological target: T2, 5HT7; assay: 5HT7 function, Gs-cAMP signaling (HEK293 cells); type: cell-based; design: ATCC CRL-1573 (cells); conditions: for Function at 5HT7: cAMP signaling
# Source text: It is certain that the C(5) substituent impacts function. […] In FIG. 3, results of measured (S)-5-PAT scaffold yields with various function as 5HT7 ligands are compared with AS-19 and clozapine.
# 5HT2A receptors [4] = biological target: T3, 5HT2A receptors (Homo sapiens, UniProt P28223); assay: biochemical; type: binding
# T3 construct: host or cells: HEK293, transient
# T3 sequence (P28223 whole entry): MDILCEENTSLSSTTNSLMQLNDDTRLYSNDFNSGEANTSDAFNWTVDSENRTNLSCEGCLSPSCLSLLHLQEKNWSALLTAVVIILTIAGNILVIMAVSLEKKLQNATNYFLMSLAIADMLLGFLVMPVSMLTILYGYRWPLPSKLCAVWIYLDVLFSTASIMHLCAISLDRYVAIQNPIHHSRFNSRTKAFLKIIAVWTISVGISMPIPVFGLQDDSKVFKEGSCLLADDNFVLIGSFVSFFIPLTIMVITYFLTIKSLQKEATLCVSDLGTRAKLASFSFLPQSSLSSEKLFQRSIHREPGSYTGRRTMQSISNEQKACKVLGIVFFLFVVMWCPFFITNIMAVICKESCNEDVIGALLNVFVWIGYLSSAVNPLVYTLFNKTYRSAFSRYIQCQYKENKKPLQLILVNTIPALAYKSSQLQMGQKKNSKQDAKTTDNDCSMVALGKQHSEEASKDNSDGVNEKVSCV
# 50 CNS/peripheral sites = assay: NIMH PDSP / NIDA evaluation at 50 CNS/peripheral sites; type: binding
# 5HT1A [5] = biological target: T1, 5HT1A; assay: 5HT1A function, Gαi cAMP signaling (CHO cells); type: cell-based
# 5HT2B receptors [6] = biological target: T4, 5HT2B receptors (Homo sapiens, UniProt P41595); assay: 5HT2B functional assays; type: cell-based
# T4 construct: host or cells: HEK293, transient
# T4 sequence (P41595 whole entry): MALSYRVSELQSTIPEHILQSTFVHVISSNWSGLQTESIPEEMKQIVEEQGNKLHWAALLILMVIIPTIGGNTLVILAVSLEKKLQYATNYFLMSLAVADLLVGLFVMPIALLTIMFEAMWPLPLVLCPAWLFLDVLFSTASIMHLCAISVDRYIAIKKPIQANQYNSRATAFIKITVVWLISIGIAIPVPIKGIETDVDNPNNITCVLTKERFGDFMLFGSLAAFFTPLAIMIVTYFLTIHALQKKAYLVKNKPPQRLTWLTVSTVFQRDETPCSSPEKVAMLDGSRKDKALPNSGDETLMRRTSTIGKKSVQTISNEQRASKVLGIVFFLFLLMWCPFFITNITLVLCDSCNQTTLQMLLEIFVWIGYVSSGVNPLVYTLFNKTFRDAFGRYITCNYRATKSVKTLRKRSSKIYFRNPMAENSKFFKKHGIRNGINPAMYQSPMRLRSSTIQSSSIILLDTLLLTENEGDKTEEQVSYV
# 5HT2C receptors = biological target: T5, 5HT2C receptors (Homo sapiens, UniProt P28335); assay: 5HT2C functional assay; type: cell-based
# T5 construct: host or cells: HEK293, transient
# T5 sequence (P28335 33-458): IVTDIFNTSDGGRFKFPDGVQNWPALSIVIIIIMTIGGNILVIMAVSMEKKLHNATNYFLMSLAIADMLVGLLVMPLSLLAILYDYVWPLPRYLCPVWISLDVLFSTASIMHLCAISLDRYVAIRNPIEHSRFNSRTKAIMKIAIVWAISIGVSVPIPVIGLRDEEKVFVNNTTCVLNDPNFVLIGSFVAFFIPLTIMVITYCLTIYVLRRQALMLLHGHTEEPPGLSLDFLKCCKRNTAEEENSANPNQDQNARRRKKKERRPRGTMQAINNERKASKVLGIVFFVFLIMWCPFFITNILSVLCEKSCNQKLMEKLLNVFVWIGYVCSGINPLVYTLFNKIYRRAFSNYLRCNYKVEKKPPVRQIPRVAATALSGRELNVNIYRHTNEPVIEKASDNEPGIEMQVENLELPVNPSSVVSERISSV
# 5HT2B receptors [7] = biological target: T4, 5HT2B receptors; assay: Affinity at 5HT2B receptors; type: binding
# 5HT7 [8] = biological target: T2, 5HT7; design: ATCC CRL-1573 (cells); conditions: cited from earlier work
# 5HT2A receptors [9] = biological target: T3, 5HT2A receptors; assay: 5-HT2A function in HEK cells over-expressing the receptor; type: cell-based
# C57BL/6J mice = assay: DOI-elicited head-twitch response (HTR); type: in vivo, mouse; conditions: mouse, in vivo
# Source text: The 5-HT2A receptor is a predominant 5-HT receptor in the cortex, and serves important excitation modulation functions on glutamate pyramidal and GABA neurons.
# [10] = test system: mice (C57BL/6J, FVB, C58/J); assay: Locomotor behavior, compound on its own; type: in vivo, mouse; conditions: for Locomotor behavior: compound on its own or in the DOI assay
# BL/6J mice = assay: Serotonin syndrome-like behavior observation; type: in vivo, mouse; conditions: mouse, in vivo
# 5HT7 [11] = biological target: T2, 5HT7; design: ATCC CRL-1573 (cells); conditions: reported human receptor data; cited from earlier work
# [12] = read-out: Affinity Ki ± SEM at 5HT1A
# [13] = read-out: Affinity Ki ± SEM at 5HT7
structure (smiles),measurement,setting,value
"CN(C)[C@H]1CCc2c(cccc2-c2ccccc2Cl)C1.Cl [(S)-5-CPT, (2S)-5-(2-chlorophenyl)-N,N-dimethyl-1,2,3,4-tetrahydronaphthalen-2-amine HCl]",Ki,5HT1A [1]; [12],7.5 ± 1.5 nM
same,Ki,5HT7 [2]; [13],1 ± 0.12 nM
same,Function at 5HT7,5HT7 [3],Partial agonist
same,Ki,5HT2A receptors [4],~500 nM
same,Activity at 50 CNS/peripheral sites,50 CNS/peripheral sites,without activity at 50 CNS/peripheral sites
same,Function at 5HT1A,5HT1A [5],Partial agonist
same,5HT2B functional activity,5HT2B receptors [6],devoid of 5HT2B activity up to 100 μM
same,Agonist efficacy/potency at 5HT2C receptors,5HT2C receptors,less potency and efficacy
same,Ki,5HT2B receptors [7],11 nM
"CCCN(CCC)[C@@H]1CCc2cccc(O)c2C1 [Compound 8-OH-DPAT, (R)-8-hydroxy-2-(n-di-propylamino)tetralin]",Function at 5HT7 (literature),5HT7 [8],low-potency 5HT7 partial agonist
"CCCN(CCC)[C@H]1CCc2c(cccc2-c2ccccc2Cl)C1 [(S)-5-CPPT, (2S)-5-(2′-chlorophenyl)-N,N-dipropyl-1,2,3,4-tetrahydronaphtha-len-2-amine]",Ki,5HT1A [1],0.6 ± 0.2 nM
same,Ki,5HT7 [2]; [13],5.9 ± 1 nM
same,Function at 5HT7,5HT7 [3],Full agonist
CN(C)[C@@H]1CCc2c(cccc2-c2ccccc2F)C1 [(2R)-5-FPT],Ki,5HT7 [2]; Affinity Ki ± SEM at 5HT7,750 nM and ~460 nM
same,5-HT7 agonist potency of (R)-enantiomer less than (S)-isomer,5HT7 [3],about 11 times
same,EC50,5HT7 [3],378 nM
same,"EMAX vs AS-19, 5-HT7 Gs-cAMP signaling",5HT7 [3],29%
same,Function at 5HT7,5HT7 [3],partial agonism
same,Function at 5-HT2A receptors,5HT2A receptors [9],neutral antagonist function
same,Affinity at 5-HT2A receptors,"5HT2A receptors [4]; human and mouse 5-HT2A receptors, compared with (2S)-5-FPT",substantially higher affinity
same,DOI-elicited HTR,C57BL/6J mice,substantially less efficacious than (2S)-5-FPT
"Fc1ccccc1-c1cccc2c1CCC(N1CCCC1)C2 (racemic) [(R/S)-5-FPyT, 1-(5-(2-fluorophenyl)-1,2,3,4-tetrahydronaphthalen-2-yl)-pyrrolidine]",Ki,5HT1A [1],1.3 ± 0.1 nM
same,Ki,5HT7 [2],51 ± 8 nM
"O=C1CC2(CCCC2)CC(=O)N1CCCCN1CCN(c2ncccn2)CC1 [Buspirone, reference compound]",Function at 5HT1A,5HT1A [5],Partial agonist
same,Catatonia,"[10]; 3 mg/kg, by itself",causes stupor-like catatonia
same,Locomotor behavior,[10],reduces locomotor behavior
same,DOI-elicited HTR,C57BL/6J mice,reduces DOI-elicited repetitive behavior
"CCCN(CCC)C1CCc2cccc(O)c2C1 (single isomer, unassigned; (+)) [(+)-DPAT, reference compound]",Serotonin syndrome,BL/6J mice,obvious serotonin syndrome
same,Locomotor behavior,[10],severe hypolocomotion
same,DOI-elicited HTR,C57BL/6J mice,suppressed the DOI HTR
N#Cc1ccc(CNC(=O)CCCCCN2CCN(c3ccccc3-c3ccccc3)CC2)cc1 [LP-211],Selectivity for 5HT7 over 5HT1A receptors,5HT7 [11],about 25 X
"CN(C)[C@H]1CCc2c(cccc2-c2ccccc2)C1.Cl [(S)-5-PT, N,N-dimethyl-5-phenyl-1,2,3,4-tetrahydronaphthalen-2-amine HCl]",Ki,5HT1A [1],22 ± 3 nM
same,Ki,5HT7 [2]; Affinity Ki ± SEM at 5HT7,9.5 ± 1.5 nM
same,Function at 5HT7,5HT7 [3],Neutral antagonist
same,Function at 5HT1A,5HT1A [5],Partial agonist
"CN(C)[C@H]1CCc2c(cccc2-c2cccc3ccccc23)C1 [(S)-5-NaT, (2S)—N,N-dimethyl-5,6,7,8-tetrahydro-[1,1′-binaphthalen]-6-amine]",Ki,5HT1A [1]; [12],64 ± 12 nM
same,Ki,5HT7 [2]; [13],5.2 ± 1.1 nM
same,Function at 5HT7,5HT7 [3],Partial agonist
same,Function at 5HT1A,5HT1A [5],Partial agonist
"CCCN(CCC)[C@H]1CCc2c(cccc2-c2ccccc2)C1.Cl [(S)-5-PPT, (2S)-5-phenyl-N,N-dipropyl-1,2,3,4-tetrahydronaphthalen-2-amine HCl]",Ki,5HT1A [1]; [12],5.9 ± 1.1 nM
same,Ki,5HT7 [2]; [13],34 ± 3 nM
same,Function at 5HT7,5HT7 [3],Full agonist
CN(C)[C@H]1CCc2c(cccc2-c2cccn2C)C1 [(S)-5-PyT],Ki,5HT1A [1],24 ± 0.2 nM
same,Ki,5HT7 [2]; Affinity Ki ± SEM at 5HT7,33 ± 4 nM
same,Function at 5HT7,5HT7 [3],Inverse agonist
same,Function at 5HT7,5HT7 [3]; listed as 5-PyT,inverse agonist at 5HT7/Gαs
same,Function at 5HT7,5HT7 [3]; listed as (2S)-5-PyT,inverse agonist
same,Function at 5HT1A,5HT1A [5],Partial agonist
same,Function at 5HT1A,5HT1A [5]; listed as 5-PyT,agonist at 5HT1A/Gαi
same,Function at 5HT1A,5HT1A [5]; listed as (2S)-5-PyT,agonist
"CCCN(CCC)C1CCc2cccc(O)c2C1 (stereo not drawn) [(—)-DPAT, reference compound]",Serotonin syndrome,BL/6J mice,"neither (—)-DPAT, a 5-HT1A partial agonist, nor AS-19 affected locomotor behavior or caused obvious serotonin syndrome"
same,Locomotor behavior,[10],"neither (—)-DPAT, a 5-HT1A partial agonist, nor AS-19 affected locomotor behavior"
same,DOI-elicited HTR,C57BL/6J mice,suppressed the DOI HTR
"Cc1nn(C)c(C)c1-c1cccc2c1CC[C@H](N(C)C)C2 [(S)-AS-19, (2S)-5-trimethylpyrazolyl-2-dimethyl-aminotetralin, reference compound]",Ki,5HT1A [1]; [12],240 nM
same,Selectivity for 5HT7 over 5HT1A,5HT7 [2]; from Ki of Table 1,20 fold
same,Ki,5HT7 [2]; [13],12 nM
same,Function at 5HT7,5HT7 [3],Partial agonist
same,Serotonin syndrome,BL/6J mice,"neither (—)-DPAT, a 5-HT1A partial agonist, nor AS-19 affected locomotor behavior or caused obvious serotonin syndrome"
same,Locomotor behavior,[10],"neither (—)-DPAT, a 5-HT1A partial agonist, nor AS-19 affected locomotor behavior"
same,DOI-elicited HTR,C57BL/6J mice,suppressed the DOI HTR
